Assay results from ChEMBL document CHEMBL3991601, “The target landscape of clinical kinase drugs” (Science, 2017).
Activity calls are given as the source filed them. Cut-off read from the data, not from the text of the source, for most assays here: actives have a measured Kd and inactives only a lower limit.

Key:
[1] = molecular target: T1, Phenylalanine--tRNA ligase beta subunit (Homo sapiens, UniProt Q9NSD9)
T1 sequence (Q9NSD9 whole entry): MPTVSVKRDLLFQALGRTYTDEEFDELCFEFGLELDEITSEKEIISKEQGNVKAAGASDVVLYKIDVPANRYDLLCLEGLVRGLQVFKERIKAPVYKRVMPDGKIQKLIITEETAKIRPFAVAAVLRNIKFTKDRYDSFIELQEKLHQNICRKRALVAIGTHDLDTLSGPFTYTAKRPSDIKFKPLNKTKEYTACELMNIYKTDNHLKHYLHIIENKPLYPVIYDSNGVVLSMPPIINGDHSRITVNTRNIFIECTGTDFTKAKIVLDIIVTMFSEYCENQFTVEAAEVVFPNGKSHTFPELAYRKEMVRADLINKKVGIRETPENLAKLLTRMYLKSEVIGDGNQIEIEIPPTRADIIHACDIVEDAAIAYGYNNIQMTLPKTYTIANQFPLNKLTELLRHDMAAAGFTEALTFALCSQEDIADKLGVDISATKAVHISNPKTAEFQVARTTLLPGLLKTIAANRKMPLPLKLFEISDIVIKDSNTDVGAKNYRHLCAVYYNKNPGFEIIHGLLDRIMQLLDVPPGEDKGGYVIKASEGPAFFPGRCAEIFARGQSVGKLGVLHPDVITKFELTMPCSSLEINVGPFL

Ephrin type-A receptor 4 = Ephrin type-A receptor 4 (Homo sapiens, UniProt P54764)
[2] = molecular target: AP2-associated protein kinase 1 (Homo sapiens, UniProt Q2M2I8)
[3] = molecular target: T2, Acyl-CoA dehydrogenase family member 11 (Homo sapiens, UniProt Q709F0)
T2 sequence (Q709F0 whole entry): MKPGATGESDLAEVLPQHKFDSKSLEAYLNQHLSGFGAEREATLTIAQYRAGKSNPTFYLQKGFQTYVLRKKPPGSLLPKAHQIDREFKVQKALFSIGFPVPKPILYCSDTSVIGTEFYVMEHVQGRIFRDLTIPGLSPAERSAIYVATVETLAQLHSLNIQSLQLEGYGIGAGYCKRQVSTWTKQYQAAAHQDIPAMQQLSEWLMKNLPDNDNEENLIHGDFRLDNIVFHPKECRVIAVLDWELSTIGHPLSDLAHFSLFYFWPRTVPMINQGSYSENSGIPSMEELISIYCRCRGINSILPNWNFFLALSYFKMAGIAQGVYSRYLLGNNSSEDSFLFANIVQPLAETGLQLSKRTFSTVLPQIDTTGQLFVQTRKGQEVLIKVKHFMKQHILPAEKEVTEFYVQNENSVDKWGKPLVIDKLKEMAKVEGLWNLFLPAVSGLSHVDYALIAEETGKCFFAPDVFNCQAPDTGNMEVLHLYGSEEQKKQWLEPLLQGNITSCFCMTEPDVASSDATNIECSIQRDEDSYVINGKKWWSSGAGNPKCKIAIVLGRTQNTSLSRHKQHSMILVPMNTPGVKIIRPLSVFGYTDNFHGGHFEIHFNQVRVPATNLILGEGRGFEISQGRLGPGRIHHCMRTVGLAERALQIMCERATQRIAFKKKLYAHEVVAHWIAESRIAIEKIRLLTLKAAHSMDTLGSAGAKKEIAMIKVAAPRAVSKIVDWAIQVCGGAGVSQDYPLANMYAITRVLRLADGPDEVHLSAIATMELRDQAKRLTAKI

[4] = molecular target: T3, Interleukin-1 receptor-associated kinase 3 (Homo sapiens, UniProt Q9Y616)
T3 sequence (Q9Y616 whole entry): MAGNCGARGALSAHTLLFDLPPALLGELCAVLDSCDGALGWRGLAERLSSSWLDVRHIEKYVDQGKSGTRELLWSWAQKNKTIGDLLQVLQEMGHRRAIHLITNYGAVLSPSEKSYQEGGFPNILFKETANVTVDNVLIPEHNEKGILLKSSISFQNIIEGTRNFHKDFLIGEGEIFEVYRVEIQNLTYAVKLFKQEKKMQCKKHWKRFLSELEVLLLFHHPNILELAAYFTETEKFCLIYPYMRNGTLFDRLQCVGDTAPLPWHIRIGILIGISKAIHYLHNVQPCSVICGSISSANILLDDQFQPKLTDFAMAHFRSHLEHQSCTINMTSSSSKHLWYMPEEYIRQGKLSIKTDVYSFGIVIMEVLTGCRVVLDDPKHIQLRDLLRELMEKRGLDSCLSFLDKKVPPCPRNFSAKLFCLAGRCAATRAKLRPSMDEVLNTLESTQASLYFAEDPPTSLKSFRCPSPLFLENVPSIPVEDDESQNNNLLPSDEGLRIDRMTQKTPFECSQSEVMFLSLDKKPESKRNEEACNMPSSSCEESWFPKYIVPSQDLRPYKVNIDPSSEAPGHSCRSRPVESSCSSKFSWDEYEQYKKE

Aurora kinase B = Aurora kinase B (Homo sapiens, UniProt Q96GD4)
[5] = molecular target: Ribosomal protein S6 kinase alpha-5 (Homo sapiens, UniProt O75582)
[6] = molecular target: Ribosomal protein S6 kinase alpha-4 (Homo sapiens, UniProt O75676)
Note: in the data inactive means no Kd found up to 30 µM.

Sequence of AP2-associated protein kinase 1 (Q2M2I8 whole entry): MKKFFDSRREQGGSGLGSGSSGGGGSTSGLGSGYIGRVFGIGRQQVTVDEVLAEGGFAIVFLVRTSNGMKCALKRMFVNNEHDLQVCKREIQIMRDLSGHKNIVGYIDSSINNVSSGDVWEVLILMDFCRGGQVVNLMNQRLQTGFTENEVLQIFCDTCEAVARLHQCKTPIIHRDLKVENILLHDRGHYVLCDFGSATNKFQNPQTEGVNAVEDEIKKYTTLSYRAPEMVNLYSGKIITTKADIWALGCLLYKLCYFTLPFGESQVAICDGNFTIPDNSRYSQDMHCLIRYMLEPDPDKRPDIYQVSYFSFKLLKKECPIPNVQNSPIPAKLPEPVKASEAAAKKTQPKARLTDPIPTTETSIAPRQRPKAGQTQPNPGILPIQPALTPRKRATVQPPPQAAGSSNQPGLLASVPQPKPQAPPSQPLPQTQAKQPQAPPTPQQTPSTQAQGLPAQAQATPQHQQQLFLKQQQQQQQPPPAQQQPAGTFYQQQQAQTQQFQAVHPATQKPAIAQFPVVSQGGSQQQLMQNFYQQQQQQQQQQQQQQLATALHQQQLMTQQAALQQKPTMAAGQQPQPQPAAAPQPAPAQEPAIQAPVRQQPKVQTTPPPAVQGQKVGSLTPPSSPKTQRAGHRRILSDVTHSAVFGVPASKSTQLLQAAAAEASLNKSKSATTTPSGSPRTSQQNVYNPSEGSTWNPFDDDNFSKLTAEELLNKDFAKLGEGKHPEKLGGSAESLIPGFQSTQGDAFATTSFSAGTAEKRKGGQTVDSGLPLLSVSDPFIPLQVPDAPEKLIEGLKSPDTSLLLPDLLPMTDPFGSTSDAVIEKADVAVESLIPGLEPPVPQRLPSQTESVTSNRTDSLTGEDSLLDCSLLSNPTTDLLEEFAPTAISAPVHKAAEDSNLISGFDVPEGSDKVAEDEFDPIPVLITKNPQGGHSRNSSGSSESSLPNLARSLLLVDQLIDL
Sequence of Ephrin type-A receptor 4 (P54764 whole entry): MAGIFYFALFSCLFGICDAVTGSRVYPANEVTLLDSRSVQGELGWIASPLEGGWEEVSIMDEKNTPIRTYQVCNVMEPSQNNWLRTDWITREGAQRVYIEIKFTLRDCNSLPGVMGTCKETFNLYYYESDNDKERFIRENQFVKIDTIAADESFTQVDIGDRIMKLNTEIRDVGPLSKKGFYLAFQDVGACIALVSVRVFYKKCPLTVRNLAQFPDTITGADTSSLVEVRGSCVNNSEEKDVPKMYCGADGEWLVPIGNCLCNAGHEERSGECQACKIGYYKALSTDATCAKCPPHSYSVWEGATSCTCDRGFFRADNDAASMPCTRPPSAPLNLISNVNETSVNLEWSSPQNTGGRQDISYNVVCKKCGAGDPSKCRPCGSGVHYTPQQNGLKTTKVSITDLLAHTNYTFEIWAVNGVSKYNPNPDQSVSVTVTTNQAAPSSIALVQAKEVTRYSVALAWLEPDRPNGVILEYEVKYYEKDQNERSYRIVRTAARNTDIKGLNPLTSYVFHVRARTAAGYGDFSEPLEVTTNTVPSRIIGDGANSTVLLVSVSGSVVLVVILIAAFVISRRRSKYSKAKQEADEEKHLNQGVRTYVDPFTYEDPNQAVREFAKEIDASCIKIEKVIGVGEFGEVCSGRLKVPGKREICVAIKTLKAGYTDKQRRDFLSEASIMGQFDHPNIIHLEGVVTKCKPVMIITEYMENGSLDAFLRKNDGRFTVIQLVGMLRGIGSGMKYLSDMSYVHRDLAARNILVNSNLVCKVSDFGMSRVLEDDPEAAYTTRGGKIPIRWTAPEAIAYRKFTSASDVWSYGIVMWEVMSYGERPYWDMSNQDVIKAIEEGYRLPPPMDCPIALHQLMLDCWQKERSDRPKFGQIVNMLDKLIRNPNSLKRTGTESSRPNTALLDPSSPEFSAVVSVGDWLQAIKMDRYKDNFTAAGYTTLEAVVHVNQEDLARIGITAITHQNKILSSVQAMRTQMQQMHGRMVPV
Sequence of Ribosomal protein S6 kinase alpha-5 (O75582 whole entry): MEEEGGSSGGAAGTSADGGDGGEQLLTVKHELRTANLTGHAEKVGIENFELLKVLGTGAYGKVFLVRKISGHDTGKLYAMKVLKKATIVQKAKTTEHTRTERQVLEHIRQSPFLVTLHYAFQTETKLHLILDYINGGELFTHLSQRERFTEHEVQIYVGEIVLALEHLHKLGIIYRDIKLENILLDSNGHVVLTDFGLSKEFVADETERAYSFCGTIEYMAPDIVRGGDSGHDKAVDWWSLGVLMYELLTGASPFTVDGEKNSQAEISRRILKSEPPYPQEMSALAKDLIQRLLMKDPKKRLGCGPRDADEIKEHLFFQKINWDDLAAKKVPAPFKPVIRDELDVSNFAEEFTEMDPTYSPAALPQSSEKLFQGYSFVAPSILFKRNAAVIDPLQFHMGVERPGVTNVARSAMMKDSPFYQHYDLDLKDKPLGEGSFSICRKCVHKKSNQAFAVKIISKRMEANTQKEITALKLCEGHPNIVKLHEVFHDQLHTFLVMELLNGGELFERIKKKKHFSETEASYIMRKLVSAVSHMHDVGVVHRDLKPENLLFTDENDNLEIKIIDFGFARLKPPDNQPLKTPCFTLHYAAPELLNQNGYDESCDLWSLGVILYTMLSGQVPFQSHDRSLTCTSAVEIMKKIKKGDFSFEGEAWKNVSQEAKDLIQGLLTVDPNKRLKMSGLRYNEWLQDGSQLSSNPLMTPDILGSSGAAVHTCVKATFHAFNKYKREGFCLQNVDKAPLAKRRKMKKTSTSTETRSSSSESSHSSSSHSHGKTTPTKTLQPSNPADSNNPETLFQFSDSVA
Sequence of Aurora kinase B (Q96GD4 whole entry): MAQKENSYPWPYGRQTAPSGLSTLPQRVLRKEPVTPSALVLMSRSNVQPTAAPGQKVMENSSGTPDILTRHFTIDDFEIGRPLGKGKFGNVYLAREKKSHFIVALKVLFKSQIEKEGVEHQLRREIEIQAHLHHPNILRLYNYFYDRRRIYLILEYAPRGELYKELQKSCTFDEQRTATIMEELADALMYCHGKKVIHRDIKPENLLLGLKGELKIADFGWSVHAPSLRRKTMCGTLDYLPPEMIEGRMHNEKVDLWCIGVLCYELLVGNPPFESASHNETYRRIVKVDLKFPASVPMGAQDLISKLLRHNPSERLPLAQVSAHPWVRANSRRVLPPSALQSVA
Sequence of Ribosomal protein S6 kinase alpha-4 (O75676 whole entry): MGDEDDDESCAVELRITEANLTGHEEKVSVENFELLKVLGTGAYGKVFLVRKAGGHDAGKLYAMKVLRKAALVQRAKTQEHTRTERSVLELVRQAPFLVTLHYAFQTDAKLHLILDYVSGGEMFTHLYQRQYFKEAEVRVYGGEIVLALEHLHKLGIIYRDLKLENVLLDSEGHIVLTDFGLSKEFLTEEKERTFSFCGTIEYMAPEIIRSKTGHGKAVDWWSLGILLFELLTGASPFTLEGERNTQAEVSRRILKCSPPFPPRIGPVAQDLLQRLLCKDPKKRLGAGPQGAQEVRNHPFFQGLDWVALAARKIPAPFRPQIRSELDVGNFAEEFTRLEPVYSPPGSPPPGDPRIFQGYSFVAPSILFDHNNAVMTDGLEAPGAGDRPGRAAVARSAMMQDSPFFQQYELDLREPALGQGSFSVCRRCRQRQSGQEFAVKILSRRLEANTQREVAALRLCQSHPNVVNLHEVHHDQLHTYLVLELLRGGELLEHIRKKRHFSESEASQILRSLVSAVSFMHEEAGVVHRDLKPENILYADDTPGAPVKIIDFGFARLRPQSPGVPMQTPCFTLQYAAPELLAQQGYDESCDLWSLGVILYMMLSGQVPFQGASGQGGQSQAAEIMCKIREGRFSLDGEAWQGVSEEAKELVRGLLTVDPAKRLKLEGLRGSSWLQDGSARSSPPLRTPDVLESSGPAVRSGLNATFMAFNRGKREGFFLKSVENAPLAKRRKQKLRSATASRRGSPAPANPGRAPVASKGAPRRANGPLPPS

Row | Kd [1] | Kd (Ephrin type-A receptor 4) | Kd [2] | Kd [3] | Kd [4] | Kd (Aurora kinase B) | Kd [5] | Kd [6] | SMILES
1 | > 30 µM (inactive) | > 30 µM (inactive) | 4.25 µM (active) | > 30 µM (inactive) | > 30 µM (inactive) | > 30 µM (inactive) | > 30 µM (inactive) | > 30 µM (inactive) | CC[C@@](C)(Nc1ccnc(-c2c[nH]c3ncccc23)n1)C(=O)NCC(F)(F)F [DECERNOTINIB]
2 | > 30 µM (inactive) | > 30 µM (inactive) | > 30 µM (inactive) | > 30 µM (inactive) | > 30 µM (inactive) | > 30 µM (inactive) | > 30 µM (inactive) | > 30 µM (inactive) | CCc1cc2c(cc1N1CCC(N3CCOCC3)CC1)C(C)(C)c1[nH]c3cc(C#N)ccc3c1C2=O [ALECTINIB]
3 | > 30 µM (inactive) | > 30 µM (inactive) | > 30 µM (inactive) | > 30 µM (inactive) | > 30 µM (inactive) | > 30 µM (inactive) | > 30 µM (inactive) | > 30 µM (inactive) | Cc1ccc(C(=O)Nc2ccc(Oc3cc4cnn(C)c4cc3-c3cn[nH]c3)c(F)c2)c(=O)n1-c1ccc(F)cc1 [MERESTINIB]
4 | > 30 µM (inactive) | > 30 µM (inactive) | 2.61 µM (active) | > 30 µM (inactive) | > 30 µM (inactive) | > 30 µM (inactive) | > 30 µM (inactive) | > 30 µM (inactive) | c1cc(OCCN2CCCCC2)cc(-c2n[nH]c3ccc(-c4nc[nH]n4)cc23)c1 [CC-401]
5 | > 30 µM (inactive) | > 30 µM (inactive) | > 30 µM (inactive) | > 30 µM (inactive) | > 30 µM (inactive) | > 30 µM (inactive) | > 30 µM (inactive) | > 30 µM (inactive) | O=C(NOC[C@H](O)CO)c1ccc(F)c(F)c1Nc1ccc(I)cc1F [MIRDAMETINIB]
6 | > 30 µM (inactive) | > 30 µM (inactive) | > 30 µM (inactive) | > 30 µM (inactive) | > 30 µM (inactive) | > 30 µM (inactive) | > 30 µM (inactive) | > 30 µM (inactive) | C[C@@H]1COC(Nc2ccc3ncnc(Nc4ccc(OCc5nccs5)c(Cl)c4)c3c2)=N1 [VARLITINIB]
7 | > 30 µM (inactive) | > 30 µM (inactive) | > 30 µM (inactive) | > 30 µM (inactive) | > 30 µM (inactive) | > 30 µM (inactive) | > 30 µM (inactive) | > 30 µM (inactive) | CNC(=O)c1cccc(-c2ccc3c(N4CCOC[C@@H]4C)nc(N4CCOC[C@@H]4C)nc3n2)c1 [VISTUSERTIB]
8 | > 30 µM (inactive) | > 30 µM (inactive) | > 30 µM (inactive) | > 30 µM (inactive) | > 30 µM (inactive) | > 30 µM (inactive) | > 30 µM (inactive) | > 30 µM (inactive) | S=C(NCc1ccc2c(c1)OCO2)N1CCN(c2ncnc3c2oc2ccccc23)CC1 [AMUVATINIB]
9 | > 30 µM (inactive) | > 30 µM (inactive) | > 30 µM (inactive) | > 30 µM (inactive) | > 30 µM (inactive) | > 30 µM (inactive) | > 30 µM (inactive) | > 30 µM (inactive) | COc1ccc(-c2ccc3ncc4c(c3c2)n(-c2ccc(N3CCNCC3)c(C(F)(F)F)c2)c(=O)n4C)cn1 [BGT-226 FREE BASE]
10 | > 30 µM (inactive) | > 30 µM (inactive) | > 30 µM (inactive) | > 30 µM (inactive) | > 30 µM (inactive) | > 30 µM (inactive) | > 30 µM (inactive) | > 30 µM (inactive) | CC(C)(O)CC(=O)NCCn1ccc2ncnc(Nc3ccc(Oc4cccc(C(F)(F)F)c4)c(Cl)c3)c21 [TAK-285]
11 | > 30 µM (inactive) | > 30 µM (inactive) | > 30 µM (inactive) | > 30 µM (inactive) | > 30 µM (inactive) | > 30 µM (inactive) | > 30 µM (inactive) | > 30 µM (inactive) | COc1cc2ncnc3c2cc1OCCCCCN(C)Cc1ccc(Br)cc1N3 [JNJ-26483327]
12 | > 30 µM (inactive) | > 30 µM (inactive) | > 30 µM (inactive) | > 30 µM (inactive) | > 30 µM (inactive) | > 30 µM (inactive) | > 30 µM (inactive) | > 30 µM (inactive) | O=C(Nc1ccc(OC(F)(F)F)cc1)c1sccc1NCc1ccnc2ccccc12 [OSI-930]
13 | > 30 µM (inactive) | > 30 µM (inactive) | > 30 µM (inactive) | > 30 µM (inactive) | > 30 µM (inactive) | > 30 µM (inactive) | > 30 µM (inactive) | > 30 µM (inactive) | COc1cc2ncnc(Nc3ccc(F)c(Cl)c3)c2cc1NC(=O)/C=C/CN1CCCCC1 [DACOMITINIB ANHYDROUS]
14 | > 30 µM (inactive) | > 30 µM (inactive) | > 30 µM (inactive) | > 30 µM (inactive) | > 30 µM (inactive) | > 30 µM (inactive) | > 30 µM (inactive) | > 30 µM (inactive) | COc1ccc2c(OCc3nnc4ccc(-c5ccccc5)nn34)ccnc2c1 [AMG-208]
15 | > 30 µM (inactive) | > 30 µM (inactive) | > 30 µM (inactive) | > 30 µM (inactive) | > 30 µM (inactive) | > 30 µM (inactive) | > 30 µM (inactive) | > 30 µM (inactive) | O=C(NC[C@H](O)CO)c1ccncc1Nc1ccc(I)cc1F [PIMASERTIB]
16 | > 30 µM (inactive) | > 30 µM (inactive) | > 30 µM (inactive) | > 30 µM (inactive) | > 30 µM (inactive) | > 30 µM (inactive) | > 30 µM (inactive) | > 30 µM (inactive) | C#Cc1cccc(Nc2ncnc3cc4c(cc23)OCCOCCOCCO4)c1 [ICOTINIB]

Row | SMILES | Kd [1] | Kd (Ephrin type-A receptor 4) | Kd [2] | Kd [3] | Kd [4] | Kd (Aurora kinase B) | Kd [5] | Kd [6]
17 | C=CCN(/C=C1/C(=O)O[C@H](COC)[C@@]2(C)C1=C(O)C(=O)C1=C2[C@H](OC(C)=O)C[C@]2(C)C(=O)CC[C@@H]12)CC=C [SONOLISIB] | > 30 µM (inactive) | > 30 µM (inactive) | > 30 µM (inactive) | > 30 µM (inactive) | > 30 µM (inactive) | > 30 µM (inactive) | > 30 µM (inactive) | > 30 µM (inactive)
18 | Cc1c(Cn2c(C)nc3c(C(=O)O)cc(N4CCOCC4)cc32)cccc1C(F)(F)F [GSK-2636771] | > 30 µM (inactive) | > 30 µM (inactive) | > 30 µM (inactive) | > 30 µM (inactive) | > 30 µM (inactive) | > 30 µM (inactive) | > 30 µM (inactive) | > 30 µM (inactive)
